Where “and” joins values, the source holds several entries; their conditions need not be identical. Equal entries are not always repeated. After the bases stand the sugars from the 5' end (letter, count) and the backbone: PS all phosphorothioate, else s phosphorothioate and o phosphodiester by linkage. Methylation of C is not given here. e = 2'-O-(2-methoxyethyl) (MOE); d = 2'-deoxy (DNA)
Target: DGAT2
Settings: ASO

| Sequence | target mRNA inhibition (HepG2, 2.5 µM) | target mRNA inhibition (HepG2, 10 µM) | target mRNA inhibition (HepG2, 0.12 µM) | target mRNA inhibition (HepG2, 20 µM) |
| --- | --- | --- | --- | --- |
| AGGCATGCTTCCTCCCA (sugars e3 d10 e4, PS) | 73% | 49% | – | – |
| AGGTTGTGTGTCTTCACCAG (sugars e5 d10 e5, PS) | – | – | 59% and 74% | – |
| AGAGGATGCTGGATCCAGTG (sugars e5 d10 e5, PS) | – | – | 45% | – |
| TAAGCCTCGGTGTCCTCTCC (sugars e5 d10 e5, PS) | 90% | 73% | – | – |
| AGCAGGTTGTGTGTCTTCAC (sugars e2 d13 e5, PS) | – | – | 44% | – |
| ACTCCCACCTGAGTGCTGCA (sugars e5 d10 e5, PS) | 92% | 80% | – | – |
| GCCTCCATGTACATGGTGTG (sugars e5 d10 e5, PS) | – | – | 63% | – |
| ACATATCCCCAACTGAAACA (sugars e5 d10 e5, PS) | – | – | 21% | – |
| AGCAGGTTGTGTGTCTTCAC (sugars e3 d14 e3, PS) | – | – | 63% | – |
| AGACCACATGAAGTATCTAA (sugars e5 d10 e5, PS) | – | – | 50% | – |
| CTCCTCCCCTTGGCAGAGAA (sugars e5 d10 e5, PS) | – | – | 43% | – |
| TCCAGACTGGATTTACTGAA (sugars e5 d10 e5, PS) | – | – | 60% | – |
| TCACAGAATTATCAGCAGTA (sugars e5 d10 e5, PS) | 80% and 61% | 93% and 84% | – | – |
| AAGGCACCTGTTACTACATG (sugars e5 d10 e5, PS) | 67% | 93% | – | – |
| ACAGCCCAGTTTCGGACCCA (sugars e5 d10 e5, PS) | – | – | 27% | – |
| TCTTTGAAAGCAAATAGTCT (sugars e5 d10 e5, PS) | – | – | 40% | – |
| GCCGTATGCCTGGGAACTTC (sugars e5 d10 e5, PS) | – | – | 29% | – |
| GATATAGTTCCTGGTGGTCA (sugars e5 d10 e5, PS) | – | – | 57% | – |
| GCGCAGGACCCCGGAGTAGG (sugars e5 d10 e5, PS) | – | – | 79% | – |
| TGATCTCATCAAGAGATAAC (sugars e5 d10 e5, PS) | – | – | 17% | – |
| AGAGGGTTCCATGGCACAAA (sugars e5 d10 e5, PS) | – | – | 67% | – |
| TCTGGACCCATCGGCCCCAG (sugars e5 d10 e5, PS) | – | – | 20% | – |
| CCGCGCAGGACCCCGGAGTA (sugars e3 d14 e3, PS) | – | – | 71% | – |
| GCTGATTACAAGCTGATTCT (sugars e5 d10 e5, PS) | 59% | 76% | – | – |

| Sequence | target mRNA inhibition (HepG2, 2.5 µM) | target mRNA inhibition (HepG2, 10 µM) | target mRNA inhibition (HepG2, 0.12 µM) | target mRNA inhibition (HepG2, 20 µM) |
| --- | --- | --- | --- | --- |
| AATTTCCTTACAGGGTATTG (sugars e5 d10 e5, PS) | – | – | 46% | – |
| CTGACATGGTAAGTCCTGAT (sugars e5 d10 e5, PS) | 76% and 52% | 93% and 89% | – | – |
| CCTGCAGAAAAAGCAACCAA (sugars e5 d10 e5, PS) | 30% | 75% | – | – |
| TTAGCTCTCAGTGAAGCTGG (sugars e5 d10 e5, PS) | 93% | 82% | – | – |
| CTGTGACCTCCTGCCACCTT (sugars e5 d10 e5, PS) | – | – | 25% | – |
| AGCATTGCCACTCCCATTCT (sugars e2 d13 e5, PS) | – | – | 50% | – |
| GGTTGCAATGTTGCCATCAT (sugars e5 d10 e5, PS) | 91% and 83% | 93% and 91% | – | – |
| GTGCTCTGTGGGCTCCTCCA (sugars e5 d10 e5, PS) | 69% | 83% | – | – |
| AGGCATGGAGCTCAGAGACT (sugars e2 d13 e5, PS) | – | – | 78% | – |
| TGCTCAGTTCTTCCAACCAG (sugars e5 d10 e5, PS) | 86% and 79% | 93% and 94% | – | – |
| TTGCGGTTCCGCAGGGTGAC (sugars e5 d10 e5, PS) | – | – | 70% | – |
| CGGAGAGGATGCTGGATCCA (sugars e5 d10 e5, PS) | – | – | 47% | – |
| TCAGAAGGCCAGGCCCCTTC (sugars e5 d10 e5, PS) | – | – | 20% | – |
| AAGCCTCGGTGTCCTCTCCT (sugars e5 d10 e5, PS) | 50% | 87% | – | – |
| GCGCAGGACCCCGGAGTAGG (sugars e2 d13 e5, PS) | – | – | 72% | – |
| TGCACCTTGTATTAAATACT (sugars e5 d10 e5, PS) | 76% and 65% | 93% and 87% | – | – |
| CCCACAGAAGAGCAAAGGCT (sugars e5 d10 e5, PS) | 76% and 74% | 94% and 92% | – | – |
| GGACAGAGGTTCAACATCCA (sugars e5 d10 e5, PS) | 58% | 89% | – | – |
| TGTGTTCCAGTCAAACACCA (sugars e5 d10 e5, PS) | – | – | 23% | – |
| GTTAGGATGCTTAACTTCTG (sugars e5 d10 e5, PS) | 51% | 86% | – | – |
| AACCACTGTTGCTGAGCTCA (sugars e5 d10 e5, PS) | 74% and 72% | 88% | – | – |
| TGGATAGTCGATTTACCAGA (sugars e5 d10 e5, PS) | 62% | 90% | – | – |
| TACTGACTTTTTCCTTCTTA (sugars e5 d10 e5, PS) | – | – | 39% | – |
| TTTGGAACTAATCTGCTGCT (sugars e5 d10 e5, PS) | – | – | 50% | – |

| Sequence | target mRNA inhibition (HepG2, 2.5 µM) | target mRNA inhibition (HepG2, 10 µM) | target mRNA inhibition (HepG2, 0.12 µM) | target mRNA inhibition (HepG2, 20 µM) |
| --- | --- | --- | --- | --- |
| CAGGACCTCAGGGCTGGCCC (sugars e5 d10 e5, PS) | 57% and 50% | 71% | – | – |
| ACCTCACCTCCATACTGGCA (sugars e5 d10 e5, PS) | 65% | 86% | – | – |
| CGCAGGGCCAGTTTCACAAA (sugars e5 d10 e5, PS) | – | – | 31% | – |
| TCCAAAGATATAGTTCCTGG (sugars e5 d10 e5, PS) | – | – | 63% | – |
| GCTTATCCTTGAGGGTCTCA (sugars e5 d10 e5, PS) | 82% and 77% and 88% | 94% and 89% and 95% | – | – |
| GCCTGGACAAGTCCTGC (sugars e3 d10 e4, PS) | 68% and 75% | 89% and 97% | – | – |
| GGGCTAATACCTACCTCACC (sugars e5 d10 e5, PS) | 53% | 74% | – | – |
| ACCCCCTCAGGAAGGCACAG (sugars e5 d10 e5, PS) | – | – | 25% | – |
| GGCCCAACCCCCTCAGGAAG (sugars e5 d10 e5, PS) | – | – | 19% | – |
| AGTCTAGTTGGAAAAGTAGA (sugars e5 d10 e5, PS) | – | – | 16% | – |
| ACAAAAGTCTGACATGGTGC (sugars e5 d10 e5, PS) | 77% | 78% | – | – |
| GAAACAGGCAGTAGGAAATC (sugars e5 d10 e5, PS) | – | – | 23% | – |
| CACTTCTGTGGCCTCTGTGC (sugars e5 d10 e5, PS) | – | – | 38% | – |
| TTGCCACTCCCATTCTTTGA (sugars e3 d14 e3, PS) | – | – | 59% | – |
| AGCACAGCGATGAGCCA (sugars e3 d10 e4, PS) | 58% | 87% | – | – |
| GTCACCTCTTCCAGGAAGAC (sugars e5 d10 e5, PS) | 83% and 73% and 76% | 92% and 88% | – | – |
| GGTGACTGCATTCTTGCCAG (sugars e5 d10 e5, PS) | – | – | 25% | – |
| ATATACAAAAGTCTGACATG (sugars e5 d10 e5, PS) | – | – | 21% | – |
| ACTGAGATGACCTGTAGCTG (sugars e5 d10 e5, PS) | – | – | 33% | – |
| GGCATGGAGCTCAGAGACTC (sugars e5 d10 e5, PS) | 25% | 76% | 77% | 49% |
| CATGTCATCAGCCACCCAAG (sugars e5 d10 e5, PS) | – | – | 16% | – |
| ACTTCTTCTGGACCCATCGG (sugars e5 d10 e5, PS) | – | – | 28% | – |
| CTGGACAAGTCCTGCCCATC (sugars e3 d14 e3, PS) | – | – | 67% | – |
| AGGGAAGCATGTGCAGCCTA (sugars e5 d10 e5, PS) | 72% and 66% | 87% and 90% | – | – |

| Sequence | target mRNA inhibition (HepG2, 2.5 µM) | target mRNA inhibition (HepG2, 10 µM) | target mRNA inhibition (HepG2, 0.12 µM) | target mRNA inhibition (HepG2, 20 µM) |
| --- | --- | --- | --- | --- |
| AGATATAGTTCCTGGTGGTC (sugars e5 d10 e5, PS) | – | – | 56% | – |
| CCAATGCCTAGGTCACAGTT (sugars e5 d10 e5, PS) | 91% | 83% | – | – |
| TGTGATGACTTCCCAGGGTC (sugars e5 d10 e5, PS) | 85% | 76% | – | – |
| ATGCCAATGCCTAGGTC (sugars e3 d10 e4, PS) | 70% and 84% | – | – | – |
| ACAGGACCCACTGGAGCACT (sugars e5 d10 e5, PS) | – | – | 79% | – |
| GTTCTTGGGCCTAAAGGTGA (sugars e5 d10 e5, PS) | – | – | 34% | – |
| TGCTTATCCTTGAGGGTCTC (sugars e5 d10 e5, PS) | 64% | 84% | – | – |
| CACTAAATTAGGAAGCTGGG (sugars e5 d10 e5, PS) | 81% and 82% | 83% and 85% | – | – |
| TGAGTAGTCAAAGGTGGCTT (sugars e5 d10 e5, PS) | – | – | 30% | – |
| TAGCCAGGTAAGGCCGTATG (sugars e3 d14 e3, PS) | – | – | 49% | – |
| CTTACTGTTCAGCAGTCTGC (sugars e5 d10 e5, PS) | 57% | 90% | – | – |
| GTGTAGCCAGGTAAGGCCGT (sugars e5 d10 e5, PS) | – | – | 50% | – |
| CAGGTAAGGCCGTATGCCTG (sugars e5 d10 e5, PS) | – | – | 63% | – |
| TGGACAAGTCCTGCCCATCT (sugars e5 d10 e5, PS) | – | – | 72% | – |
| AGCACAGCGATGAGCCAGCA (sugars e5 d10 e5, PS) | – | – | 35% | – |
| GCTTCAATAAATACCTTATC (sugars e5 d10 e5, PS) | 84% and 74% | 92% and 97% | – | – |
| TCCTATCAGTTAGCAGTGCA (sugars e5 d10 e5, PS) | 81% and 68% | 86% and 83% | – | – |
| GCATGAACAAGGGCAAGTCC (sugars e5 d10 e5, PS) | 79% | 89% | – | – |
| ACCAGCTGGATGGGAAAGTA (sugars e5 d10 e5, PS) | – | – | 21% | – |
| AAGTGAACCCTCACTTCCCA (sugars e5 d10 e5, PS) | – | – | 35% | – |
| GAGGCTCAGGCCTTGACAAC (sugars e5 d10 e5, PS) | – | – | 12% | – |

From the OligoGym collection
